Test results taken from patent publication US20260200890A1, “ADAR1 INHIBITORS AND METHODS OF USING THE SAME” (AVAMMUNE THERAPEUTICS INC., priority 2022, published 2026).
pEC50, pKd: −log10 of the molar value.

Experiments:
ADAR1 = target: T1, ADAR1 (Homo sapiens, UniProt P55265); test: ADAR1 Inhibition Assay (IFN fold-induction, Quanti-Luc luminescence, p110 KO A549 dual cells); type: cell-based; conditions: IFN fold-induction vs DMSO, 24 and 48 h
T1 construct: endogenous in cells; host or cells: p110 KO A549 dual cells
T1 sequence (P55265 1-1226): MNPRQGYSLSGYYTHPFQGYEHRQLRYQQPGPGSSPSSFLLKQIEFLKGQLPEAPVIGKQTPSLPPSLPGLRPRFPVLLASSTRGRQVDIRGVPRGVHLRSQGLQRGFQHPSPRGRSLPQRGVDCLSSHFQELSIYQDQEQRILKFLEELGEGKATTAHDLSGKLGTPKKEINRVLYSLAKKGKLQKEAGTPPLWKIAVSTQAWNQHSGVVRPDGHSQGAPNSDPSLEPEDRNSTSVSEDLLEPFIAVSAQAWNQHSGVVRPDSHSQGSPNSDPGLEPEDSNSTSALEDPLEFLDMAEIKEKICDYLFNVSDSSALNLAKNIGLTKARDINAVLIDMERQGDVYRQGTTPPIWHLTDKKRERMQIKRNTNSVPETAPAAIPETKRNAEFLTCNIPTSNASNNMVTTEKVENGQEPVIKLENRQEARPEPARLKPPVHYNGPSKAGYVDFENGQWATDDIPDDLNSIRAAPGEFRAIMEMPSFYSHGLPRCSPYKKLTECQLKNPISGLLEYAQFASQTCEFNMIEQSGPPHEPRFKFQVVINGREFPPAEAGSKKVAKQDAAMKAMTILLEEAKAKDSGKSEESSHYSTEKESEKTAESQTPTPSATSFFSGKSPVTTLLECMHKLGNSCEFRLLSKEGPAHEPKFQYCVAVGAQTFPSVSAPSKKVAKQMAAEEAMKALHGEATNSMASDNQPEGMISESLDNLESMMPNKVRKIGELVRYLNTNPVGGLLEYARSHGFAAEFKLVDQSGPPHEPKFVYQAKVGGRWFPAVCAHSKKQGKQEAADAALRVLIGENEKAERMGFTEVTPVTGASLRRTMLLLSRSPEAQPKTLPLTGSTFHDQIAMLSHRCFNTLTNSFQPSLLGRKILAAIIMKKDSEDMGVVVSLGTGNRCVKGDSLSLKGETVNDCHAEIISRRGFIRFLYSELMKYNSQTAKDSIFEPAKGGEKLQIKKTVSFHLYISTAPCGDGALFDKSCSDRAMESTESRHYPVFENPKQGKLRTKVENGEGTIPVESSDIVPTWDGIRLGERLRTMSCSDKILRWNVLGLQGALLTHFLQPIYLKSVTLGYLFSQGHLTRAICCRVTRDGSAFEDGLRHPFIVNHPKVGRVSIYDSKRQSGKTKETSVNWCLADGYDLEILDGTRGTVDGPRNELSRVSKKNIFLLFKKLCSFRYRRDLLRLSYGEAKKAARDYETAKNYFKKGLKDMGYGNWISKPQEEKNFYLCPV
Summary of the method: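 p110 KO A549 dual cells (20,000/well) in supplemented DMEM, treated next day with compound at 1% final DMSO for 24 and 48 h at 37 °C, 5% CO2. Supernatant luminescence read with Quanti-Luc; IFN fold-induction = sample RLU/mean DMSO RLU, used for EC50.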

Zα domain of ADAR1 p150 = target: T2, Zα domain of ADAR1 p150 (Homo sapiens, UniProt P55265); test: SPR binding assay; conditions: 6× his tag Zα domain immobilized on CM5 chip, analyte 0-25 μM
T2 construct: 10 μg/ml of Zα domain of ADAR1 was immobilized on CM5 chip using anti-HIS antibody; made in house
T2 sequence (P55265 133-199 limits assumed): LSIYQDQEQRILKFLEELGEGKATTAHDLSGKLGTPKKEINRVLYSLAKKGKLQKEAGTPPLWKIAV
Experimental: 6× his tag Za domain of ADAR1 p150 was purified using bacterial purification system. Protein was isolated from supernatant of cell lysate using Ni-NTA resin. For binding assay using SPR, 10 μg/ml of Zα domain of ADAR1 was immobilized on CM5 chip using anti-HIS antibody. Binding was quantified using the following condition below: • Analyte: 25, 12.5, 6.25, 3.125, 1.56, 0.78, 0 μM • Contact time—60 seconds, • Dissociation time—320 seconds • Flow rate—30 μL/minute Running buffer-PBSP+5% DMSO • After curve fitting, Kd values for synthesized compounds was quantified using the instrument software.

Row | Structure (SMILES) | pEC50 (ADAR1) | pKd (Zα domain of ADAR1 p150)
1 | CCOC(=O)c1cc(-c2ccccc2)sc1NC(=O)CNC(=O)c1cccc(NS(C)(=O)=O)c1 [Compound 13] | < 4.00 | ≥ 6.00
2 | CCOC(=O)c1cc(-c2ccccc2)sc1NC(=O)COC(=O)c1cccc(NS(C)(=O)=O)c1 [Compound 66, Ethyl 2-(2-((3-(methylsulfonamido)benzoyl)oxy)acetamido)-5-phenylthiophene-3-carboxylate] | ≥ 4.60 | ≥ 6.00
3 | CCOC(=O)c1cc(-c2ccccc2)sc1NC(=O)COC(=O)c1cccc(C(F)(F)F)c1 [Compound 70] | < 4.00 | < 4.60
4 | CCOC(=O)c1cc(-c2ccccc2)sc1NC(=O)COC(=O)c1cccc(C#N)c1 [Compound 71] | < 4.00 | ≥ 6.00
5 | CCOC(=O)c1cc(-c2ccccc2)sc1NC(=O)C1CCCN1C(=O)c1cccc(S(N)(=O)=O)c1 (centres unmarked) [Compound 72] | ≥ 4.60 | 5.00 to 6.00
6 | CCOC(=O)c1cc(-c2ccccc2)sc1NC(=O)COC(=O)c1cccc(NC(C)=O)c1 [Compound 107] | < 4.00 | ≥ 6.00
7 | CCOC(=O)c1cc(-c2ccccc2)sc1NC(=O)COC(=O)c1cccc(NS(C)(=O)=O)c1 [Compound 121] | < 4.00 | ≥ 6.00
8 | CS(=O)(=O)Nc1cccc(C(=O)OCC(=O)Nc2sc(-c3ccccc3)cc2C#N)c1 [Compound 127] | < 4.00 | ≥ 6.00
9 | CCOC(=O)c1cc(-c2ccccc2)sc1NC(=O)COC(=O)c1cccc(N(C)S(C)(=O)=O)c1 [Compound 130] | < 4.00 | ≥ 6.00
10 | CCOC(=O)c1cc(-c2ccccc2)sc1NC(=O)COC(=O)c1cccc(NS(=O)(=O)C2CCCCC2)c1 [Compound 132] | < 4.00 | ≥ 6.00
11 | CCOC(=O)c1cc(-c2ccccc2)sc1NC(=O)COC(=O)c1ccc(F)c(NS(C)(=O)=O)c1 [Compound 137] | < 4.00 | < 4.60
12 | CCOC(=O)c1cc(-c2ccccc2)sc1NC(=O)COC(=O)c1cccc(OS(=O)(=O)F)c1 [Compound 302] | – | ≥ 6.00
13 | CCOC(=O)c1sc(-c2ccccc2)cc1NC(=O)COC(=O)c1cccc(NS(C)(=O)=O)c1 [Compound 354] | < 4.00 | –
14 | CCOC(=O)c1sc(-c2ccccc2)cc1NC(=O)CNC(=O)Cc1cccc(NS(C)(=O)=O)c1 [Compound 357] | – | 5.00 to 6.00
15 | CCOC(=O)c1cc(-c2ccccc2)sc1NC(=O)Cn1cc(CSc2cccc(NS(C)(=O)=O)c2)nn1 [Compound 360] | < 4.00 | –
16 | CCOC(=O)c1cc(-c2ccccc2)sc1NC(=O)Cn1cc(CS(=O)(=O)c2cccc(NS(C)(=O)=O)c2)nn1 [Compound 362] | < 4.00 | –
17 | CCOC(=O)c1cc(-c2ccccc2)sc1NC(=O)CNC(=O)Cc1ccc(OS(C)(=O)=O)c(NS(C)(=O)=O)c1 [Compound 368] | < 4.00 | –
18 | CCOC(=O)c1sc(-c2ccccc2)cc1NC(=O)COC(=O)c1cccc(P(=O)(OCC)OCC)c1 [Compound 370] | < 4.00 | –
19 | CCOC(=O)c1cc(-c2ccccc2)sc1NC(=O)CNC(=O)Cc1cccc(S(N)(=O)=O)c1 [Compound 371] | < 4.00 | –
20 | CCOC(=O)c1cc(-c2ccccc2)sc1NC(=O)COC(=O)c1nonc1NS(C)(=O)=O [Compound 374] | < 4.00 | –
21 | CCOC(=O)c1ccnc(-c2ccccc2)c1NC(=O)COC(=O)c1cccc(NS(C)(=O)=O)c1 [Compound 375] | < 4.00 | –
22 | CCOC(=O)c1cc(-c2ccccc2)sc1NC(=O)CNC(=O)/C=C/c1cccc(NS(C)(=O)=O)c1 [Compound 377] | < 4.00 | –
23 | CCOC(=O)c1cc(-c2ccccc2)sc1NC(=O)COC(=O)c1ccc2cc(NS(C)(=O)=O)ccc2c1 [Compound 378] | < 4.00 | –
24 | CCOC(=O)c1cc(-c2ccccc2)sc1NC(=O)COC(=O)c1cccc(S(=O)(=O)NC(C)(C)C)c1 [Compound 379] | < 4.00 | –

Row | Structure (SMILES) | pEC50 (ADAR1) | pKd (Zα domain of ADAR1 p150)
25 | CCOC(=O)c1cc(-c2ccccc2)ncc1NC(=O)COC(=O)c1cccc(P(=O)(OCC)OCC)c1 [Compound 381] | < 4.00 | –
26 | CCOC(=O)c1cc(-c2ccccc2)ncc1NC(=O)COC(=O)c1cccc(P(=O)(O)O)c1 [Compound 382] | < 4.00 | –
27 | CCOC(=O)c1cc(-c2ccccc2)sc1NC(=O)C1CCCN1C(=O)c1cccc(P(=O)(OCC)OCC)c1 (centres unmarked) [Compound 383] | < 4.00 | –
28 | CCOC(=O)c1cc(-c2ccc(P(=O)(OCC)OCC)cc2)sc1NC(=O)COC(=O)c1cccc(P(=O)(OCC)OCC)c1 [Compound 390] | < 4.00 | –
29 | CCOC(=O)c1cc(P(=O)(O)O)sc1NC(=O)COC(=O)c1cccc(NS(C)(=O)=O)c1 [Compound 391] | < 4.00 | –
30 | CCOC(=O)c1cc(-c2ccccc2)sc1NC(=O)CN(C)C(=O)c1cccc(P(=O)(OCC)OCC)c1 [Compound 392] | 4.00 to 4.30 | –
31 | CCOC(=O)c1cc(-c2ccccc2)sc1NC(=O)[C@@H]1CCCN1C(=O)c1cccc(P(=O)(OCC)OCC)c1 [Compound 393] | < 4.00 | –
32 | CCOC(=O)c1cc(-c2ccccc2)sc1NC(=O)[C@H]1CCCN1C(=O)c1cccc(P(=O)(OCC)OCC)c1 [Compound 394] | < 4.00 | –
33 | CCOC(=O)c1cc(-c2ccccc2)sc1NC(=O)Cn1cc(CNC(=O)c2cccc(P(=O)(OCC)OCC)c2)nn1 [Compound 401] | < 4.00 | –
34 | CCOC(=O)c1cc(-c2ccccc2)sc1NC(=O)C1CCCN1C(=O)c1cccc(P(=O)(O)O)c1 (centres unmarked) [Compound 404] | 4.00 to 4.30 | –
35 | CCOC(=O)c1nc(-c2ccccc2)oc1NC(=O)COC(=O)c1cccc(P(=O)(OCC)OCC)c1 [Compound 407] | 4.00 to 4.30 | –
36 | CCOC(=O)c1cc(-c2ccccc2)[nH]c1NC(=O)CNC(=O)c1cccc(P(=O)(OCC)OCC)c1 [Compound 408] | 4.00 to 4.30 | –
37 | CCNC(=O)c1cc(-c2ccccc2)sc1NC(=O)CNC(=O)c1cccc(NS(C)(=O)=O)c1 [Compound 410] | 4.00 to 4.30 | –
38 | CCOC(=O)c1cc(-c2ccccc2)sc1NC(=O)COC(=O)c1cccc(OP(=O)(N[C@H](C)C(=O)OC(C)C)Oc2ccccc2)c1 (some centres unmarked) [Compound 411] | < 4.00 | –
39 | CCOC(=O)c1cc(-c2ccccc2)sc1NC(=O)[C@@H]1CCCN1C(=O)c1cccc(P(=O)(O)O)c1 [Compound 413] | < 4.00 | –
40 | CCOC(=O)c1cc(-c2ccccc2)sc1NC(=O)Cn1cc(C(=O)Nc2cccc(P(=O)(OCC)OCC)c2)nn1 [Compound 417] | < 4.00 | –
41 | CCOC(=O)c1sc(-c2ccccc2)cc1NC(=O)COC(=O)c1cccc(S(N)(=O)=O)c1 [Compound 423] | < 4.00 | –
42 | CCOC(=O)c1cc(-c2ccccc2)sc1NC(=O)C1CCN(C(=O)c2cccc(S(N)(=O)=O)c2)C1 (centres unmarked) [Compound 425] | < 4.00 | –
43 | CCOC(=O)c1cc(-c2ccc(P(=O)(OCC)OCC)cc2)sc1NC(=O)COC(=O)c1cccc(S(N)(=O)=O)c1 [Compound 429] | < 4.00 | –
44 | CCOC(=O)c1cc(-c2ccccc2)sc1NC(=O)CNC(=O)CCc1cccc(P(=O)(O)O)c1 [Compound 432] | – | ≥ 6.00
45 | CCOC(=O)c1cc(-c2ccccc2)sc1NC(=O)CN(C)C(=O)c1cccc(P(=O)(O)O)c1 [Compound 435] | – | ≥ 6.00
46 | CCOC(=O)c1cc(-c2ccccc2)sc1NC(=O)CNC(=O)CCc1cccc(P(=O)(OCC)OCC)c1 [Compound 436] | – | ≥ 6.00
47 | CCNC(=O)c1cc(-c2ccccc2)sc1NC(=O)CNC(=O)c1ccc(P(=O)(OCC)OCC)cc1 [Compound 437] | – | ≥ 6.00
48 | CCOC(=O)c1cc(-c2ccccc2)sc1NC(=O)CNC(=O)c1cccc(C(=O)O)c1 [Compound 439] | – | ≥ 6.00
